Consider three compounds from patent US20200289450A1, “METHODS OF REDUCING OR PREVENTING OXIDATIVE MODIFICATION OF MEMBRANE POLYUNSATURATED FATTY ACIDS” (Amarin Pharmaceuticals Ireland Limited, priority 2013, published 2020).

Structures are written as SMILES.

Data set [1] has as its system human sdLDL. Put plainly: Copper-initiated sdLDL oxidation, TBARS (Example 6). On the procedure: (§1) An experiment to study the antioxidant effect of EPA in small dense LDL (“sdLDL”) was performed. EPA was purchased from Sigma-Aldrich (Saint Louis, Mo.) and solubilized in ethanol to 1 mM under nitrogen atmosphere. Vitamin E (α-tocopherol) was purchased from Sigma-Aldrich and prepared in ethanol at 1.0 mM (ϵ=3.06×10^4 M^−1 cm^−1 at 294 nm) just prior to experimental use. All test compounds were further diluted in ethanol or aqueous buffer as needed.
(§2) Venous blood was collected from healthy volunteers into vacutainer tubes containing sodium EDTA. Plasma was separated by centrifugation at 3000 g for 25 min at 4° C. and adjusted to a density of 1.020 g/mL with KBr. […] Sample TBARS concentrations were determined spectrophotometrically by measuring sample absorbances against a standard curve derived from the hydrolysis of 1,1,3,3-tetramethoxypropane.
(§3) Data are presented as mean±S.D. for (N) separate samples or treatment groups. Differences between groups were analyzed using the two-tailed, Student's t-test (for comparisons between only two groups) or ANOVA followed by Dunnett or Student-Newman-Keuls multiple comparisons post-hoc analysis (for comparisons between three or more groups). […]

For data set [2], the system named is human LDL (unfractionated). Put plainly: Copper-initiated oxidation of unfractionated LDL, TBARS (Example 6). The settings on record: 1.0 μM to 10.0 μM. The procedure:
as §1, §2, §3

A short description of data set [3]: Glucose-induced membrane lipid peroxidation (LOOH), CHOD-iodide assay in MLVs (Example 4). The procedure:
Vitamin E (α-tocopherol) was also purchased from Sigma-Aldrich and prepared in ethanol at 1.0 mM (ϵ=3.06×10^4 M^−1 cm^−1 at 294 nm) just prior to experimental use. […] All test compounds were further diluted in ethanol or aqueous buffer as needed. Glucose was prepared in saline buffer (0.5 mM HEPES, 154 mM NaCl, pH 7.3) at 11.0 mM (200 mg/dL). CHOD-iodide color reagent (stock) was prepared, with slight modification, as described by from El-Saadani et al. (J. […] Prior to experimental use, the CHOD reagent was activated by adding 24 μM ethylenediaminetetraacetic acid (EDTA), 20 μM butylated hydroxytoluene (BHT), and 0.2% Triton X-100. Multilamellar vesicles (MLVs) were prepared as binary mixtures of DLPC (1.0 or 2.5 mg total phospholipid per sample) and cholesterol at a fixed cholesterol-to-phospholipid (C/P) mole ratio of 0.6:1. […] Aliquot volume was reduced with each successive time point to ensure that spectrophotometric readings were within the optimal adsorption range. […] Sample absorbances were then measured against a CHOD blank at 365 nm using a Beckman DU-640 spectrophotometer. The CHOD colorimetric assay is based on the oxidation of iodide (I^−) by lipid hydroperoxide (LOOH) to form triiodide (I3^−), the quantity of which is directly proportional to the amount of LOOH present in the lipid sample. […]

Data set [4] is described as follows: Glucose- and peroxidation-induced cholesterol domain formation, small angle x-ray diffraction (Example 4). The format is physicochemical. On the procedure:
The membrane structural effects of glucose and the various compounds examined in this study were measured at 0, 72, and 96 hour intervals. Membrane lipid vesicles were oriented for x-ray diffraction analysis as described by others (e.g., Herbette et al., Biophys. J., vol. 20(2), pages 245-272 (1977)). Briefly, a 100 μL aliquot (containing 250 μg MLV) was aspirated from each sample and transferred to a Lucite® sedimentation cell fitted with an aluminum foil substrate upon which a given sample could be collected by centrifugation. Samples were then loaded into a Sorvall AH-629 swinging bucket rotor (DuPont Corp., Wilmington, Del.) and centrifuged at 35,000 g, 5° C., for 90 min.
After centrifugal orientation, sample supernatants were aspirated and aluminum foil substrates, each supporting a single membrane pellet, were removed from the sedimentation cells. Sample pellets were dried for 5-10 min at ambient conditions, mounted onto curved glass supports, and placed in hermetically-sealed, brass or glass containers (for immediate analysis or temporary storage, respectively). All x-ray diffraction experiments were conducted at 20° C., 74% relative humidity. The latter was established by exposing membrane samples to saturated solutions of L-(+) […] (K2C4H4O6.½H2O). Samples were incubated at these conditions for at least 1 hour prior to experimental analysis.
Oriented membrane samples were aligned at grazing incidence with respect to a collimated, mono-chromatic CuKα x-ray beam (Kα1 and Kα2 unresolved; λ=1.54 Å) produced by a Rigaku Rotaflex RU-200, high-brilliance microfocus generator (Rigaku-MSC, The Woodlands, Tex.) as previously described (Mason et al, Biophys. J., vol. 55(4), pages 769-778 (1989)). […]
The d-space for any given membrane multibilayer is a measurement of the unit cell periodicity of the membrane lipid bilayer (e.g., the distance from the center of one lipid bilayer to the next including surface hydration), and is calculated from Bragg's Law, hλ=2dsinθ, where h is the diffraction order, λ is the wavelength of the x-ray radiation (1.54 Å), d is the membrane lipid bilayer unit cell periodicity, and θ is the Bragg angle equal to one-half the angle between the incident beam and scattered beam.
The presence of cholesterol domains in a given membrane sample results in the production of distinct Bragg (diffraction) peaks having singular periodicity values of 34 and 17 Å (typically referred to as first- and second-order cholesterol domain peaks). Under the specific temperature and relative humidity conditions established for these experiments, the second-order, 17 Å cholesterol domain peak was well-delineated from other, neighboring cholesterol and phospholipid diffraction peaks and was thus used to quantitate relative cholesterol domain peak intensity. […]

In data set [5] the test system is human low density lipoprotein and model liposomes. As to conditions: cited from earlier work.
Data set [6] deals with T1, HMG-CoA reductase (Homo sapiens, UniProt P04035).
T1 sequence (P04035 1-888): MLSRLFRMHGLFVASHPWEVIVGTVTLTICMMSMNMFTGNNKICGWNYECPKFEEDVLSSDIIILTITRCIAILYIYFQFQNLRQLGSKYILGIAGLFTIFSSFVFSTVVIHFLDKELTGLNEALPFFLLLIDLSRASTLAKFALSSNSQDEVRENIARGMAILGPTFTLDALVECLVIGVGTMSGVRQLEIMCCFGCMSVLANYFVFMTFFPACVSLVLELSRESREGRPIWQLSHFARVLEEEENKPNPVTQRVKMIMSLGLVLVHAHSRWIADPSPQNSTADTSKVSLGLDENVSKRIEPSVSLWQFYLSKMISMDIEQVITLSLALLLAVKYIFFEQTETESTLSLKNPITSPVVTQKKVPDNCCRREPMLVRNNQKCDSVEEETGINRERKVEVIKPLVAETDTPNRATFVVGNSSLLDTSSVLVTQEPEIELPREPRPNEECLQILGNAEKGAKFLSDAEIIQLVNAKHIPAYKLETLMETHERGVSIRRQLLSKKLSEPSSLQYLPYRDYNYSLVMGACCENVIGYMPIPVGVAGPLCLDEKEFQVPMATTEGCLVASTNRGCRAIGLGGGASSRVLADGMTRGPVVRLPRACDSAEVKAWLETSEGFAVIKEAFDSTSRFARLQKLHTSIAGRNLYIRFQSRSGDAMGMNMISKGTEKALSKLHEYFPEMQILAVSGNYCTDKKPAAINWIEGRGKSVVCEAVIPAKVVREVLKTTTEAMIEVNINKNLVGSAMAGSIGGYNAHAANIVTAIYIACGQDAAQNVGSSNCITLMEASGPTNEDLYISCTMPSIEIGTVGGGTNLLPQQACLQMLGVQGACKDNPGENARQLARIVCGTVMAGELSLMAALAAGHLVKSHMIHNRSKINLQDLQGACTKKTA
As to conditions: metabolized by hepatic cytochrome P450; cited from earlier work.

The conditions of data set [7]: cited from earlier work.

`Cc1c(C)c2c(c(C)c1O)CC[C@@](C)(CCC[C@H](C)CCC[C@H](C)CCCC(C)C)O2` [vitamin E, α-tocopherol]: the sdLDL oxidation result in data set [1] (1.0 μM to 10.0 μM) is on record as “did not inhibit sdLDL oxidation except at the highest concentration”. Further, the “reduction of TBARS levels compared to vehicle-treated controls” value in data set [1] (sdLDL, 10.0 μM, 2 hr after 10 μM CuSO4) was determined as 26%. For the same compound, the LDL oxidation result in data set [2] is “did not inhibit LDL oxidation at any concentration”. For the same compound, the “effect on LOOH formation / lipid peroxidation (FIG. 3)” value in data set [3] (72- and 96-hour time points, glucose, 1:30 drug-to-phospholipid mole ratio) is “no significant effect”. Also, the “effect on membrane structure compared to control samples” value in data set [4] (0 hours (start of experiment), glucose 200 mg/dL, 1:30 drug-to-phospholipid mole ratio) is recorded as “no appreciable effect”. The “cholesterol crystalline domain peaks (d-space 34 Å)” value in data set [4] (72 hours oxidative conditions, glucose 200 mg/dL, 1:30) is given as “observed”. Moreover, the cholesterol domain peaks result in data set [4] (96 hours oxidative conditions, glucose 200 mg/dL, 1:30) is on record as “disproportionately greater”. Further, the “effect on cholesterol domain formation compared to control” value in data set [4] (any experimental time point (FIG. 5)) is on record as “no significant effect”.

`CC(C)c1c(C(=O)Nc2ccccc2O)c(-c2ccccc2)c(-c2ccc(F)cc2)n1CC[C@@H](O)C[C@@H](O)CC(=O)O` [ATM, Atorvastatin ortho- (o-) hydroxy (active) metabolite]: the antioxidant properties entry in data set [5] is listed as “potent antioxidant properties”. In data set [3] (each at 1.0 μM, glucose 200 mg/dL, 96 hours), the “antioxidant effects (LOOH formation)” value is “separate and potent antioxidant effects”.

In the case of `CC(C)c1c(C(=O)Nc2ccccc2)c(-c2ccccc2)c(-c2ccc(F)cc2)n1CC[C@@H](O)C[C@@H](O)CC(=O)O` [atorvastatin], the “share of circulating HMG-CoA reductase inhibitory activity accounted for by active metabolites” value in data set [6] was “approximately 70%”. Besides, in data set [7] (10 mg, 12 weeks), the “circulating levels of chlorotyrosine” value is given as “significantly reduce”, the “circulating levels of dityrosine” value is given as “significantly reduce” and the “circulating levels of nitrotyrosine” value was “significantly reduce”. Besides, in data set [7] (80 mg, 16 weeks, 2,341 patients), the “levels of oxidized lipids associated with all apoB100-containing lipid particles” value was “significant reduction”.
